# Source: patent US10494378B2, “Fused ring pyrimidine compound, intermediate, and preparation method, composition and use thereof” (GUANGZHOU MAXINOVEL PHARMACEUTICALS CO., LTD., priority 2015, dated 2019)
# Assays:
# Assay type in all cases: biochemical
# JAK3 kinase = biological target: T1, JAK3 kinase (Homo sapiens, UniProt P52333); assay: IC50 evaluation assay on JAK3 kinase inhibition (Caliper); conditions: adenosine triphosphate at Km; 1 hour at 28° C.; average of two tests; read-out: IC50 (nM) inhibiting JAK 3 kinase
# T1 construct: purchased Carna 08-046
# T1 sequence (P52333 1-1124): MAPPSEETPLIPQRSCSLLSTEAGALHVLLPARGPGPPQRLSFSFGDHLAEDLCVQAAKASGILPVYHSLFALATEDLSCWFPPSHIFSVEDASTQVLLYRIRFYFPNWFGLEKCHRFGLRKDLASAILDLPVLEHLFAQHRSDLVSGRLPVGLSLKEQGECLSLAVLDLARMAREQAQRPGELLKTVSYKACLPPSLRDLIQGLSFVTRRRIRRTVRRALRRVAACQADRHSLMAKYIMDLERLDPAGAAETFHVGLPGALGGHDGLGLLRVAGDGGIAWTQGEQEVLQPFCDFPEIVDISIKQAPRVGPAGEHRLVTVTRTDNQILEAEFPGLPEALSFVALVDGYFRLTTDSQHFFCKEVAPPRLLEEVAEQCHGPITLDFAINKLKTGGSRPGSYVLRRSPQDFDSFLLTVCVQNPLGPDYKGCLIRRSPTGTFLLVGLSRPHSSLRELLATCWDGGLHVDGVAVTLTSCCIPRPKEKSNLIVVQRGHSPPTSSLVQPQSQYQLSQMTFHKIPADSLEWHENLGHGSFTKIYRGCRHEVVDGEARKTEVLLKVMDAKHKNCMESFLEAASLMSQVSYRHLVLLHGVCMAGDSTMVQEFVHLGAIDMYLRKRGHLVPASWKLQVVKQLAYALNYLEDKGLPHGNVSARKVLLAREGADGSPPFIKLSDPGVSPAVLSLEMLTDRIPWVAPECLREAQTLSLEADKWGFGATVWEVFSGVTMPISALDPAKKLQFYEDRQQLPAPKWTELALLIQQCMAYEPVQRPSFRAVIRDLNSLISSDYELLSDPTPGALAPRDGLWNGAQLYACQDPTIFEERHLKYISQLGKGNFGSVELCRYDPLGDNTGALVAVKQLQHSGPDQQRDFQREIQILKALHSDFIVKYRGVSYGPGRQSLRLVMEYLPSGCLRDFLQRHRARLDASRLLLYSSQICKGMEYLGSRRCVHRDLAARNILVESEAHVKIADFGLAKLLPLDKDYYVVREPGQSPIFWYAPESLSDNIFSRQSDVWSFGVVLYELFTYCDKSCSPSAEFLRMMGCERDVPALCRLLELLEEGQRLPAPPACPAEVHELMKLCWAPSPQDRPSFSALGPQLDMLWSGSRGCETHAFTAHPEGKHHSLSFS
# Procedure: (§1) 1. The compound was dissolved in 100% DMSO, diluted into solutions with appropriate concentration gradients with water according to experimental requirement, and added to a 384-well plate.
# (§2) 2. JAK2 kinase (Carna, Cat. No. 08-045, Lot. No. 07CBS-1927) and JAK3 kinase (Carna, Cat. No. 08-046, Lot. No. 08CBS-0371) were diluted to the optimum concentration with the following buffer solution: 50 mM HEPES, pH 7.5, 0.0015% Brij-35, 2 mM DTT. JAK1 kinase (Carna, Cat. No. 08-144, Lot. No. 11CBS-0144D) was diluted to the optimum concentration with the following buffer solution: 25 mM HEPES pH 7.5, 0.01% Brij-35, 2 mM DTT, 0.01M Triton. Transfer to the 384-well plate and incubated with the compound for a period of time.
# (§3) 3. […] The substrate of JAK1 was diluted to the optimum concentration with the following buffer: 25 mM HEPES, pH 7.5, 0.01% Brij-35, 10 mM MgCl2, 0.01M Triton, adenosine triphosphate at Km. Add to the 384-well plate to initiate there action and react for 1 hour at 28° C.
# (§4) 4. 1 Eq. of sulfuric acid solution was added to terminate the reaction, the conversion rate was read with Caliper Reader. The inhibition rate was calculated as the average of two tests.
# JAK1 kinase = biological target: T2, JAK1 kinase (Homo sapiens, UniProt P23458); assay: IC50 evaluation assay on JAK1 kinase inhibition (Caliper); conditions: adenosine triphosphate at Km; 1 hour at 28° C.; average of two tests; read-out: IC50 (nM) inhibiting JAK 1 kinase
# T2 construct: purchased Carna 08-144
# Procedure: as §1, §2, §3, §4
# JAK2 kinase = biological target: T3, JAK2 kinase (Homo sapiens, UniProt O60674); assay: IC50 evaluation assay on JAK2 kinase inhibition (Caliper); conditions: adenosine triphosphate at Km; 1 hour at 28° C.; average of two tests; read-out: IC50 (nM) inhibiting JAK 2 kinase
# T3 construct: purchased Carna 08-045
# Procedure: as §1, §2, §3, §4
# T3 sequence (O60674 whole entry): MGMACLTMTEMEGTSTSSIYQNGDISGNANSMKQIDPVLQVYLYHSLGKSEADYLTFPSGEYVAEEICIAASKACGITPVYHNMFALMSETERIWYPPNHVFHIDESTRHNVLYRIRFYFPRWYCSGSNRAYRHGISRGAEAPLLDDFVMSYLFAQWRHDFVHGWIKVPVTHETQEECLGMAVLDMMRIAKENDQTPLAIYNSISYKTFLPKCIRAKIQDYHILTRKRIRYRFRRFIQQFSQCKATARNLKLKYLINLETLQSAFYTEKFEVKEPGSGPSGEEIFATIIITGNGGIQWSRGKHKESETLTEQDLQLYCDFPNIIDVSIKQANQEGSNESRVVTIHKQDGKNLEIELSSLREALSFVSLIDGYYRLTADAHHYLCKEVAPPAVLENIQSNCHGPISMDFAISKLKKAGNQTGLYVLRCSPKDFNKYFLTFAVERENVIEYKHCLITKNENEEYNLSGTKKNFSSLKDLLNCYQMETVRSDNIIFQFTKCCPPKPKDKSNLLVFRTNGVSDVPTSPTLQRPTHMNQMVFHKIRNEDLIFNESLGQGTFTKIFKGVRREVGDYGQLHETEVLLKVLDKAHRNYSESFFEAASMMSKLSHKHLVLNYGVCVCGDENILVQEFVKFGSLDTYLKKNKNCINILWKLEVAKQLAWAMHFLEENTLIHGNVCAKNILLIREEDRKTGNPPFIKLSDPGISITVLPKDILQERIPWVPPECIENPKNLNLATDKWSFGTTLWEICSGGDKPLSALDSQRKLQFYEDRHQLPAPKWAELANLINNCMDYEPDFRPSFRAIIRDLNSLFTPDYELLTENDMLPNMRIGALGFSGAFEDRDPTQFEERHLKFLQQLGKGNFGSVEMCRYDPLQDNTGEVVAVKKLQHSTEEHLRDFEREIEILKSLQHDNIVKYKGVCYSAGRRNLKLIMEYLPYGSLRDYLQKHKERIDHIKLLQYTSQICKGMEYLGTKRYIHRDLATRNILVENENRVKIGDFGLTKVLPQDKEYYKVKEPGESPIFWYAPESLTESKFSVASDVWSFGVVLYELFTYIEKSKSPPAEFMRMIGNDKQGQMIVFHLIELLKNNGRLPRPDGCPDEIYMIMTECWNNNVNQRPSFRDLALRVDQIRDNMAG
# T2 sequence (P23458 whole entry): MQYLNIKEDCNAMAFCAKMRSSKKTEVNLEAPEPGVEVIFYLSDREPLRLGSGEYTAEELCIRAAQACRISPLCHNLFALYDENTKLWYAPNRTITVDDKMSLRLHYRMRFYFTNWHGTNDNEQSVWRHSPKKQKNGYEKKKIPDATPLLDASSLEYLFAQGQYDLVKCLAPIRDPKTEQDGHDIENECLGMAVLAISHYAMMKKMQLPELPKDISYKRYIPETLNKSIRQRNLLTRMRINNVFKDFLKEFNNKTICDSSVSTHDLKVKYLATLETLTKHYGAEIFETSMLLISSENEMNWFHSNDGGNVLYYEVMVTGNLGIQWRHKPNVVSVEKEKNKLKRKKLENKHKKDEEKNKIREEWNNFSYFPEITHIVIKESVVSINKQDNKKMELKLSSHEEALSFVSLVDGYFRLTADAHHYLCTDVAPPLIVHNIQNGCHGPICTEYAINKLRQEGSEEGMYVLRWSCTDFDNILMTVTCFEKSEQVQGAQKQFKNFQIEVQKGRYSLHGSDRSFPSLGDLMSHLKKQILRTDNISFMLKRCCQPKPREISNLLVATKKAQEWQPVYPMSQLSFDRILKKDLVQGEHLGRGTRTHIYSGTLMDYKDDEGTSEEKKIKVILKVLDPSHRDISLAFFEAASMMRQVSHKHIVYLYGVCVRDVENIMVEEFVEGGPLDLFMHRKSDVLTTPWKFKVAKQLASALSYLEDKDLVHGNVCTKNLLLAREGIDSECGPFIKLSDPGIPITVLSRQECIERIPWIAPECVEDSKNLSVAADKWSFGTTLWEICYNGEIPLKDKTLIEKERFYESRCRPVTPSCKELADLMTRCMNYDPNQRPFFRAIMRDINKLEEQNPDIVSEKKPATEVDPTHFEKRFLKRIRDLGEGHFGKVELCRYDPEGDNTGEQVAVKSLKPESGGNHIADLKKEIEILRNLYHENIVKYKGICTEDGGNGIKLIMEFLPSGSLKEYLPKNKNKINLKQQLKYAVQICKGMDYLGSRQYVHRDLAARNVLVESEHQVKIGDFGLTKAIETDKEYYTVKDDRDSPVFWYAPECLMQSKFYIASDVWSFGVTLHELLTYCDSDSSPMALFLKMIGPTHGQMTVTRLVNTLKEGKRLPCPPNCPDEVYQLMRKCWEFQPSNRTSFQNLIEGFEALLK
Structure (SMILES),IC50 (JAK3 kinase),IC50 (JAK1 kinase),IC50 (JAK2 kinase)
"COc1ccccc1-c1c(C)sc2cnc(Nc3cnn(C4CCN(C)CC4)c3)nc12 [Compound 25, N-[7-(2-methoxyphenyl)-6-methylthieno[3,2-d]pyrimidinyl-2-yl]-1-(1-methylpiperidin-4-yl)-1H-pyrazol-4-amine]",1.3 nM,3.6 nM,0.6 nM
"Cc1sc2cnc(Nc3cnn(C)c3)nc2c1-c1ccccc1OC(C)C [Compound 29, 1-Methyl-N-{6-methyl-7-[2-(isopropoxy)phenyl]thieno[3,2-d]pyrimidinyl-2-yl]-1H-pyrazol-4-amine]",15.9 nM,30.4 nM,0.8 nM
"COc1cc(F)ccc1-c1c(C)sc2cnc(Nc3cnn(CCCN4CCCC4)c3)nc12 [Compound 27, N-[7-(4-fluoro-2-methoxyphenyl)-6-methylthieno[3,2-d]pyrimidinyl-2-yl]-1-[3-(1-pyrrolidinyl)propyl]-1H-pyrazol-4-amine]",1.6 nM,10 nM,2.3 nM
COc1cc(OCCCN2CCC2)ccc1-c1c(C)sc2cnc(Nc3cnn(C)c3)nc12 [Compound 16],6.4 nM,34 nM,6.1 nM
COc1cc(S(C)(=O)=O)ccc1-c1c(C)sc2cnc(Nc3cnn(C)c3)nc12 [Compound 4],3.1 nM,16 nM,1.3 nM
"Cc1sc2cnc(Nc3cnn(C)c3)nc2c1-c1cccc2c1OCO2 [Compound 30, N-[7-(2H-1,3-benzodioxol-4-yl)-6-methylthieno[3,2-d]pyrimidinyl-2-yl]-1-methyl-1H-pyrazol-4-amine]",5.1 nM,8.5 nM,1.9 nM

# The remaining lines, values ahead:
IC50 (JAK3 kinase),IC50 (JAK1 kinase),IC50 (JAK2 kinase),Structure (SMILES)
1.3 nM,4.2 nM,0.51 nM,"COc1cc(S(C)(=O)=O)ccc1-c1c(C)sc2cnc(Nc3cnn(C4CCNCC4)c3)nc12 [Compound 48, N-[7-(4-methylsulfonyl-2-methoxyphenyl)-6-methylthieno[3,2-d]pyrimidin-2-yl]-1-(4-piperidin)-1H-pyrazol-4-amine]"
0.42 nM,6.6 nM,0.79 nM,"Cc1sc2cnc(Nc3cnn(C4CCNCC4)c3)nc2c1-c1cccc2c1OCC2 [Compound 32, N-[7-(2,3-dihyro-1-benzofuran-7-yl)-6-methylthieno[3,2-d]pyrimidinyl-2-yl]-1-(piperidinyl-4-yl)-1H-pyrazol-4-amine]"
0.73 nM,5.1 nM,0.94 nM,"COc1cc(OCCCS(C)(=O)=O)ccc1-c1c(C)sc2cnc(Nc3cnn(C)c3)nc12 [Compound 11, N-{7-[4-(3-methylsulfonylpropoxy)-2-methoxyphenyl]-6-methylthieno[3,2-d]pyrimidinyl-2-yl]-1-methyl-1H-pyrazol-4-amine]"
0.84 nM,3.8 nM,0.7 nM,"COc1ccccc1-c1c(C)sc2cnc(Nc3cnn(C4CCNCC4)c3)nc12 [Compound 35, N-[7-(2-methoxyphenyl)-6-methylthieno[3,2-d]pyrimidinyl-2-yl]-1-(piperidinyl-4-yl)-1H-pyrazol-4-amine]"
0.39 nM,1.3 nM,0.31 nM,"COc1ccccc1-c1c(C)sc2cnc(Nc3cnn(CCO)c3)nc12 [Compound 21, 2-(4-{[7-(2-methoxyphenyl)-6-methylthieno[3,2-d]pyrimidinyl-2-yl]amino}-1H-pyrazol-1-yl)-1-ethanol]"
